Experimental data published in patent US20240156790A1, “COMPOUNDS, COMPOSITIONS, AND METHODS FOR MODULATING FERROPTOSIS AND TREATING EXCITOTOXIC DISORDERS” (THE TRUSTEES OF COLUMBIA UNIVERSITY IN THE CITY OF NEW YORK, priority 2018, published 2024).
“Also recorded” adds a separate entry of the source. Like-named read-outs stand apart in the source and are kept apart here.

What was measured:
[1] = test system: N27 rat dopaminergic cells; assay: Suppression of ferroptosis induced by RSL3 in N27 cells (CellTiter-Glo viability); format: cell-based; conditions: for IC50: Rattus norvegicus, read-out: IC50; for ability to suppress ferroptosis, in words: RSL3 20 nM, 24 hours of incubation
HT-1080 cells = assay: Rescue activity of Fer-1 analogs: inhibition of erastin-, IKE- or RSL3-induced death (Alamar Blue viability); format: cell-based; conditions: Homo sapiens
Experimental: HT-1080 cells are cultured in DMEM containing 10% fetal bovine serum, 1% supplemented non-essential amino acids and 1% pen/strep mixture (Gibco) and maintained in a humidified environment at 37° C. with 5% CO2 in a tissue culture incubator. 1,000 HT-1080 cells are seeded per well in duplicate 384-well plates (Corning) using a BioMek FX liquid handling robot (Beckman Coulter). The next day, the medium is replaced with 36 μL of medium containing 10 μM erastin with 4 μL of medium containing a dilution series (previously prepared) of DMSO, Fer-1 (positive control) or Fer-1 analogs. […] Cells are incubated a further 6 hours and then the Alamar Blue fluorescence intensity recorded using a Victor 3 platereader (PerkinElmer)(ex/em 530/590). All experiments are performed at least twice and the background (no cells)-subtracted Alamar Blue values for each combination are averaged between replicates. The same procedure was repeated by replacing erastin (10 μM) with IKE (3 μM) or RSL3 (0.2 μM).

[2] = N27, 24 h, Table 13, 20 nM RSL3, treated for 24 hours^d
[3] = HT-1080, ^a 50% viability, HT-1080 cells treated with 10 μM erastin
[4] = HT-1080, ^b 50% viability, HT-1080 treated with 3 μM IKE
[5] = HT-1080, ^c 50% viability, HT-1080 treated with 0.2 μM RSL3
[6] = N27, 24 h, Table 3, ^d 24 hr treatment, 1,000 cells/well seeded
[7] = N27, 48 h, Table 13, 20 nM RSL3, treated for 48 hours^e

| Compound | IC50 [1, 2] | EC50 (HT-1080 cells; [3]) | EC50 (HT-1080 cells; [4]) | EC50 (HT-1080 cells; [5]) | also measured |
| --- | --- | --- | --- | --- | --- |
| CCC(CC)Nc1cnc(NC2CCCCC2)c(-c2nc(C)no2)c1 [TH-4-53-1, N^2-cyclohexyl-3-(3-methyl-1,2,4-oxadiazol-5-yl)-N^5-(pentan-3-yl)pyridine-2,5-diamine] | 0.0327 µM | – | – | – | – |
| Cc1noc(-c2ccc(NC3CCCCC3)c(NCc3ccncc3)c2)n1 [TH-1-53-3, N1-cyclohexyl-4-(3-methyl-1,2,4-oxadiazol-5-yl)-N2-(pyridin-4-ylmethyl)benzene-1,2-diamine] | – | 0.0638 µM | 0.063 µM | 0.0315 µM | – |
| Cc1noc(-c2ccc(NC3CCCCC3)c(NCc3ccccc3)c2)n1 [TH-1-53-2] | – | 0.0445 µM | 0.0402 µM | 0.0094 µM | – |
| CCC(CC)Nc1cc(-c2nc(C)no2)cnc1NC1CCCC1 [TH-4-68, N^2-cyclopentyl-5-(3-methyl-1,2,4-oxadiazol-5-yl)-N^3-(pentan-3-yl)pyridine-2,3-diamine] | 0.004 µM | – | – | – | IC50 [1, 6]: 0.004 µM |
| CC(C)(C)OC(=O)c1cnc(NC2CCCCC2)c(NC2CCCCC2)c1 [CFI-101] | – | 0.354 µM | 0.171 µM | 0.163 µM | – |
| Cc1noc(-c2cnc(NC3CCCCC3)c([N+](=O)[O-])c2)n1 [TH-4-50-2, N-cyclohexyl-5-(3-methyl-1,2,4-oxadiazol-5-yl)-3-nitropyridin-2-amine] | – | – | – | – | ability to suppress ferroptosis, in words [1]: unable to suppress ferroptosis |
| CCOC(=O)c1cnc(NC2CCCCC2)c(NCc2ccccc2)c1 [YZ1109, ethyl 5-(benzylamino)-6-(cyclohexylamino)nicotinate] | – | 0.317 µM | 0.166 µM | 0.115 µM | – |
| Cc1noc(-c2cc(NC3CCCC3)cnc2NC2CCCCC2)n1 [TH-4-53-2, N^2-cyclohexyl-N^5-cyclopentyl-3-(3-methyl-1,2,4-oxadiazol-5-yl)pyridine-2,5-diamine] | 0.0018 µM | – | – | – | potency relative to fer-1, in words ([1]; 20 nM RSL3): more potent than fer-1; also recorded: the most potent of the analogs tested |
| Cc1noc(-c2cnc(NC3CCCC3)c([N+](=O)[O-])c2)n1 [TH-4-58-2, N-cyclopentyl-5-(3-methyl-1,2,4-oxadiazol-5-yl)-3-nitropyridin-2-amine] | – | – | – | – | ability to suppress ferroptosis, in words [1]: unable to suppress ferroptosis |
| Cc1noc(-c2ccc(NC3CCCCC3)c(NC(C)C)c2)n1 [TH-1-45-2, N1-cyclohexyl-N2-isopropyl-4-(3-methyl-1,2,4-oxadiazol-5-yl)benzene-1,2-diamine] | – | 0.0223 µM | 0.0162 µM | 0.0042 µM | – |
| Cc1noc(-c2ccc(NC3CCCCC3)c(NC3CCCC3)c2)n1 [TH-1-45-1, N1-cyclohexyl-N2-cyclopentyl-4-(3-methyl-1,2,4-oxadiazol-5-yl)benzene-1,2-diamine] | – | 0.0338 µM | 0.0173 µM | 0.0051 µM | – |
| CCN(CC)c1ncc(-c2nc(C)no2)cc1[N+](=O)[O-] [TH-4-46-2, N,N-diethyl-5-(3-methyl-1,2,4-oxadiazol-5-yl)-3-nitropyridin-2-amine] | – | – | – | – | ability to suppress ferroptosis, in words [1]: unable to suppress ferroptosis |
| Cc1noc(-c2cnc(NC3CCCCC3)c(NC3CCCC3)c2)n1 [TH-4-16-1, N^2-cyclohexyl-N^3-cyclopentyl-5-(3-methyl-1,2,4-oxadiazol-5-yl)pyridine-2,3-diamine] | 0.0051 µM | – | – | – | IC50 [1, 6]: 0.0051 µM; IC50 ([1]; N27, 48 h, Table 3, ^e 48 hr treatment, 1,000 cells/well seeded): 0.0082 µM; IC50 [1, 7]: 0.0082 µM |
| CC(C)(C)OC(=O)c1cnc(NC23CC4CC(CC(C4)C2)C3)c(N)c1 [YZ1117, tert-butyl 6-(((3s,5s,7s)-adamantan-1-yl)amino)-5-aminonicotinate] | – | 0.085 µM | 0.0684 µM | 0.0391 µM | – |
| CCC(CC)Nc1cc(-c2nc(C)no2)ccc1NC1CCCCC1 [TH-1-45-3, N1-cyclohexyl-4-(3-methyl-1,2,4-oxadiazol-5-yl)-N2-(pentan-3-yl)benzene-1,2-diamine] | – | 0.0378 µM | 0.0269 µM | 0.0066 µM | – |
| CC(C)(C)OC(=O)c1cnc(NC2CCCCC2)c(N)c1 [YZ1113, tert-butyl 5-amino-6-(cyclohexylamino)nicotinate] | – | 0.338 µM | 0.312 µM | 0.156 µM | – |
| COc1ccc(NC2CCCCC2)c(NC(C)C)n1 [TH-3-95-1-r1, N3-cyclohexyl-N2-isopropyl-6-methoxypyridine-2,3-diamine] | 0.0305 µM | – | – | – | IC50 [1, 7]: 0.0224 µM |
| CCOC(=O)c1cnc(NC2CCCCC2)c(N)c1 [YZ1108, ethyl 5-amino-6-(cyclohexylamino)nicotinate] | – | 0.315 µM | 0.639 µM | 1.04 µM | – |
| Cc1noc(-c2cnc(NC3CCCC3)c(NC3CCC3)c2)n1 [TH-4-62, N^3-cyclobutyl-N^2-cyclopentyl-5-(3-methyl-1,2,4-oxadiazol-5-yl)pyridine-2,3-diamine] | 0.0069 µM | – | – | – | IC50 [1, 6]: 0.0069 µM |
| COc1ccc(NC(C)C)c(NC(C)C)n1 [TH-3-95-2-R1, N2,N3-diisopropyl-6-methoxypyridine-2,3-diamine] | 0.0357 µM | – | – | – | IC50 [1, 7]: 0.00022 µM |
| COc1ccc(N)c(NC(C)C)n1 [TH-3-83-2, N2-isopropyl-6-methoxypyridine-2,3-diamine] | 0.0195 µM | – | – | – | IC50 [1, 7]: 0.0336 µM |
| Cc1noc(-c2cnc(NC3CCCC3)c(NC3CCCCC3)c2)n1 [TH-4-66, N^3-cyclohexyl-N^2-cyclopentyl-5-(3-methyl-1,2,4-oxadiazol-5-yl)pyridine-2,3-diamine] | 0.0031 µM | – | – | – | potency relative to fer-1, in words ([1]; 20 nM RSL3): more potent than fer-1; IC50 [1, 6]: 0.0031 µM |
| Cc1noc(-c2cc(N(C(C)C)C(C)C)cnc2NC2CCCCC2)n1 [TH-3-86-R2, N^2-cyclohexyl-N^5,N^5-diisopropyl-3-(3-methyl-1,2,4-oxadiazol-5-yl)pyridine-2,5-diamine] | – | – | – | – | IC50 [1, 7]: 1.04 µM; IC50 ([1]; N27, text, 20 nM RSL3): 1 µM |
| Cc1noc(-c2cnc(NC3CCCCC3)c(NC3CCC3)c2)n1 [TH-4-55-1, N^3-cyclobutyl-N^2-cyclohexyl-5-(3-methyl-1,2,4-oxadiazol-5-yl)pyridine-2,3-diamine] | 0.0022 µM | – | – | – | potency relative to fer-1, in words ([1]; 20 nM RSL3): more potent than fer-1; IC50 [1, 6]: 0.0022 µM |
| C=C/C(=C\C(F)=C\COC(C)(C)C)NC12CC3CC(CC(C3)C1)C2 [CFI-A78] | – | – | 0.026 µM | 0.018 µM | – |
| CC(C)(C)OC(=O)c1cnc(NC23CC4CC(CC(C4)C2)C3)c(NC2CCCCC2)c1 [YZ1118, tert-butyl 6-(((3s,5s,7s)-adamantan-1-yl)amino)-5-(cyclohexylamino)nicotinate] | – | – | 0.0401 µM | 0.0373 µM | – |
